Our source for the GI50 values is ChEMBL document CHEMBL4837228, “Generation and Biological Evaluation of Degraded Derivatives of the Three E/Z-Isomers of Yaku'amide B” (2021).

The term GI50 denotes the concentration that inhibits growth by half.

The test system of this assay is MCF7. Description: Growth inhibition of human MCF7 cells for 48 hrs by sulforhodamine B assay. The class given is functional. (The SRB assay estimates cell density from bound dye.)
On to `CC/C(C)=C(\NC(=O)[C@@H](NC(=O)[C@H](NC(=O)[C@H](NC(=O)[C@H](NC(=O)/C(NC(=O)[C@H](C)NC(=O)/C(NC(=O)[C@@H](NC(=O)C(C)(C)C(=O)[C@@H](C)CC(C)C)[C@](C)(O)CC)=C(/C)CC)=C(/C)CC)C(C)C)[C@@H](C)CC)C(C)(C)O)C(C)(C)O)C(=O)N[C@H](C)C(=O)N[C@@H](C(=O)N[C@H](C(=O)NC(C(=O)N[C@H](CN(C)C)C(C)C)=C(C)C)C(C)C)C(C)C`, for which growth was halved (GI50) at 25.4 nM.
For `CC/C(C)=C(\NC(=O)[C@H](C)NC(=O)/C(NC(=O)[C@@H](NC(=O)C(C)(C)C(=O)[C@@H](C)CC(C)C)[C@](C)(O)CC)=C(/C)CC)C(=O)N[C@@H](C(=O)N[C@@H](C(=O)N[C@@H](C(=O)N[C@H](C(=O)N/C(C(=O)N[C@H](C)C(=O)N[C@@H](C(=O)N[C@H](C(=O)NC(C(=O)N[C@H](CN(C)C)C(C)C)=C(C)C)C(C)C)C(C)C)=C(/C)CC)C(C)(C)O)C(C)(C)O)[C@@H](C)CC)C(C)C` the value was 24.6 nM; for `CC/C(C)=C(\NC(=O)[C@H](C)NC(=O)/C(NC(=O)[C@@H](NC(=O)C(C)(C)C(=O)[C@@H](C)CC(C)C)[C@](C)(O)CC)=C(\C)CC)C(=O)N[C@@H](C(=O)N[C@@H](C(=O)N[C@@H](C(=O)N[C@H](C(=O)N/C(C(=O)N[C@H](C)C(=O)N[C@@H](C(=O)N[C@H](C(=O)NC(C(=O)N[C@H](CN(C)C)C(C)C)=C(C)C)C(C)C)C(C)C)=C(\C)CC)C(C)(C)O)C(C)(C)O)[C@@H](C)CC)C(C)C`, 57.4 nM.
Compound `CC/C(C)=C(\NC(=O)[C@@H](NC(=O)[C@H](NC(=O)[C@H](NC(=O)[C@H](NC(=O)/C(NC(=O)[C@H](C)NC(=O)/C(NC(=O)CNC(=O)C(C)(C)C(=O)[C@@H](C)CC(C)C)=C(/C)CC)=C(/C)CC)C(C)C)[C@@H](C)CC)C(C)(C)O)C(C)(C)O)C(=O)N[C@H](C)C(=O)N[C@@H](C(=O)N[C@H](C(=O)NC(C(=O)N[C@H](CN(C)C)C(C)C)=C(C)C)C(C)C)C(C)C` gave a GI50 of 28.2 nM.
As to `CC/C(C)=C(\NC(=O)CNC(=O)C(C)(C)C(=O)[C@@H](C)CC(C)C)C(=O)N[C@@H](C)C(=O)N/C(C(=O)N[C@@H](C(=O)N[C@@H](C(=O)N[C@@H](C(=O)N[C@H](C(=O)N/C(C(=O)N[C@H](C)C(=O)N[C@@H](C(=O)N[C@H](C(=O)NC(C(=O)N[C@H](CN(C)C)C(C)C)=C(C)C)C(C)C)C(C)C)=C(\C)CC)C(C)(C)O)C(C)(C)O)[C@@H](C)CC)C(C)C)=C(/C)CC`, the GI50 came out at 26.8 nM.
For `CC/C(C)=C(\NC(=O)[C@@H](NC(=O)[C@H](NC(=O)[C@H](NC(=O)[C@H](NC(=O)/C(NC(=O)[C@H](C)NC(=O)/C(NC(=O)[C@@H](NC(=O)C(C)(C)C(=O)[C@@H](C)CC(C)C)[C@](C)(O)CC)=C(\C)CC)=C(/C)CC)C(C)C)[C@@H](C)CC)C(C)(C)O)C(C)(C)O)C(=O)N[C@H](C)C(=O)N[C@@H](C(=O)N[C@H](C(=O)NC(C(=O)N[C@H](CN(C)C)C(C)C)=C(C)C)C(C)C)C(C)C`, it took 18.2 nM to inhibit growth by half (GI50).
The value for `CC/C(C)=C(\NC(=O)CNC(=O)C(C)(C)C(=O)[C@@H](C)CC(C)C)C(=O)N[C@@H](C)C(=O)N/C(C(=O)N[C@@H](C(=O)N[C@@H](C(=O)N[C@@H](C(=O)NCC(=O)N/C(C(=O)N[C@H](C)C(=O)N[C@@H](C(=O)N[C@H](C(=O)NC(C(=O)N[C@H](CN(C)C)C(C)C)=C(C)C)C(C)C)C(C)C)=C(\C)CC)C(C)(C)O)[C@@H](C)CC)C(C)C)=C(/C)CC` was 304 nM.
Take `CC/C(C)=C(\NC(=O)[C@H](C)NC(=O)/C(NC(=O)CNC(=O)C(C)(C)C(=O)[C@@H](C)CC(C)C)=C(/C)CC)C(=O)N[C@@H](C(=O)N[C@@H](C(=O)N[C@@H](C(=O)N[C@H](C(=O)N/C(C(=O)N[C@H](C)C(=O)N[C@@H](C(=O)N[C@H](C(=O)NC(C(=O)N[C@H](CN(C)C)C(C)C)=C(C)C)C(C)C)C(C)C)=C(/C)CC)C(C)(C)O)C(C)(C)O)[C@@H](C)CC)C(C)C`: the GI50 was found to be 47.7 nM.
